Laboratory results from US20220143053A1, “ANTI-MICROBIAL METHODS AND MATERIALS” (priority 2019, published 2022).
≈ marks a conversion by molar mass, not a printed value. Like-named read-outs stand apart in the source and are kept apart here.

What was measured:
[1] = system: methicillin-sensitive Staphylococcus aureus (MSSA, ATCC 12600); experiment: Minimum inhibitory concentration (MIC) test, CLSI M07-A10; type: cell-based
Description: (§1) Antibacterial activity of sodium channel blockers (lidocaine, bupivacaine, tetracaine, procaine, prilocaine), NSAIDs (ketorolac and tolfenamic acid), antioxidants (resveratrol and curcumin), and antibiotics (gentamicin and vancomycin) was performed against methicillin-sensitive Staphylococcus aureus (MSSA, ATCC 12600). The bacterial susceptibility tests were conducted as outlined in the Clinical and Laboratory Standard Institute (CLSI) protocol M07-A10. Bacterial suspensions with a concentration of approximately 5*10^5 CFU/ml were prepared in Lysogeny broth and mixed with the tested drugs. […] Minimum bactericidal concentration (MBC) was determined as the minimum concentration of the tested drug needed to kill 99.9% of bacteria (or 3−log 10 reduction). […] The MBC was measured for lidocaine, bupivacaine, ketorolac, and gentamicin.

[2] = Drug solubility limit in growth medium; type: physicochemical; settings: plasma or biological fluid
[3] = system: methicillin-sensitive S. aureus; settings: cited from earlier work
[4] = system: Bacillus cereus, MSSA, MRSA, Escherichia coli, Klebsiella pneumoniae, Pseudomonas aeruginosa, Enterobacter aerogenes, and Salmonella Choleraesuis; settings: eight listed bacteria; cited from earlier work
[5] = systemic administration; cited from earlier work
[6] = system: methicillin-sensitive Staphylococcus aureus (MSSA, ATCC 12600); experiment: Minimum bactericidal concentration (MBC) test; type: cell-based; settings: MSSA ATCC 12600, kill 99.9% of bacteria
Description: as §1

[7] = system: MSSA (ATCC 14775); experiment: Time-kill experiments; type: cell-based, Staphylococcus aureus; settings: between 4 and 24 h
Description: Time-kill curves employing 3 time-points (0, 4, 24 hours) over the period of 24 hours were obtained for characterization of the antibacterial activity of selected combinations against MSSA (ATCC® 14775). Tested combinations of drugs were incubated with 5*10^5 CFU/ml of bacteria in Lysogeny broth at 37° C. At a given time-point, aliquots were collected, and bacterial concentrations were determined using the spread-plate method. The minimum accurately countable concentration was 10^2 CFU/ml. […] The increase of bacterial concentration represented antagonism.

[8] = Staphylococcus aureus, MSSA ATCC 12600, Lysogeny broth, 24-hour incubation at 37° C., read-out: MIC

Question: Which MIC [1, 8] does the source give for `CCCCN1CCCCC1C(=O)Nc1c(C)cccc1C` (stereo not shown) [Bupivacaine] here?
Answer: The MIC was 1880 µg/mL (≈ 6.5 mM).

Question: What about the solubility [2] of the same compound?
Answer: The solubility was about 15 mg/mL (≈ 52 mM).

Question: What about the antibacterial effects [3] of the same compound?
Answer: Its antibacterial effects is “measurable antibacterial effects”.

Question: With `COc1cc(/C=C/C(=O)CC(=O)/C=C/c2ccc(O)c(OC)c2)ccc1O` [Curcumin] as the compound, how does the MIC [1, 8] read?
Answer: Its MIC is 188 µg/mL (≈ 0.509 mM).

Question: For `CC(C)Cc1ccc(C(C)C(=O)O)cc1` (stereo not shown) [Ibuprofen], which antibacterial activity [4] is on record?
Answer: Its antibacterial activity is “measurable antibacterial activity”.

Question: Which results are given for `O=C(c1ccccc1)c1ccc2n1CCC2C(=O)O` (stereo not shown) [Ketorolac]?
Answer: MIC [1, 8]: 3120 µg/mL (≈ 12.2 mM); solubility [2]: ~18 mg/mL (≈ 70.5 mM)

Question: What does the source list for `CCN(CC)CC(=O)Nc1c(C)cccc1C` [Lidocaine]?
Answer: MIC [1, 8]: 15600 µg/mL (≈ 66.7 mM); antibacterial effects [3]: measurable antibacterial effects

Question: Which MIC [1, 8] does the source give for `CCCNC(C)C(=O)Nc1ccccc1C` (stereo not shown) [Prilocaine] here?
Answer: The MIC was 25000 µg/mL (≈ 113 mM).

Question: With `CCN(CC)CCOC(=O)c1ccc(N)cc1` [Procaine] as the compound, how does the MIC [1, 8] read?
Answer: Its MIC is 100000 µg/mL (≈ 423 mM).

Question: With `Oc1ccc(C=Cc2cc(O)cc(O)c2)cc1` [Resveratrol] as the compound, how does the MIC [1, 8] read?
Answer: The MIC was 125 µg/mL (≈ 0.548 mM).

Question: With `CCCCNc1ccc(C(=O)OCCN(C)C)cc1` [Tetracaine] as the compound, how does the MIC [1, 8] read?
Answer: The MIC was 938 µg/mL (≈ 3.55 mM).

Question: With `Cc1c(Cl)cccc1Nc1ccccc1C(=O)O` [Tolfenamic Acid] as the compound, how does the MIC [1, 8] read?
Answer: Its MIC is 250 µg/mL (≈ 0.955 mM).

Question: What does the source list for `CN[C@H](CC(C)C)C(=O)N[C@H]1C(=O)N[C@@H](CC(N)=O)C(=O)N[C@H]2C(=O)N[C@H]3C(=O)N[C@H](C(=O)N[C@H](C(=O)O)c4cc(O)cc(O)c4-c4cc3ccc4O)[C@H](O)c3ccc(c(Cl)c3)Oc3cc2cc(c3O[C@@H]2O[C@H](CO)[C@@H](O)[C@H](O)[C@H]2O[C@H]2C[C@](C)(N)[C@H](O)[C@H](C)O2)Oc2ccc(cc2Cl)[C@H]1O` [Vancomycin]?
Answer: MIC ([1]; Staphylococcus aureus, 24 h): 0.625 µg/mL (≈ 0.000431 mM); concentration in the bone relative to that in the serum [5]: ~20%

Question: Which antibacterial activity [4] does the source give for `CC(=O)Oc1ccccc1C(=O)O` [aspirin] here?
Answer: The antibacterial activity was “measurable antibacterial activity”.

Question: For `O=C(O)Cc1ccccc1Nc1c(Cl)cccc1Cl` [diclofenac], which antibacterial activity [4] is on record?
Answer: The antibacterial activity was “measurable antibacterial activity”.

Question: Which antibacterial activity [4] does the source give for `Cc1cccc(Nc2ccccc2C(=O)O)c1C` [mefenamic acid] here?
Answer: The antibacterial activity was “measurable antibacterial activity”.

Question: With Gentamicin as the compound, how does the MIC ([1]; MSSA ATCC 12600, Lysogeny broth, 24-hour incubation at 37° C.) read?
Answer: The MIC was 4 µg/mL.

Question: What about the MBC [6] of the same compound?
Answer: The MBC was 2 µg/mL.

Question: And the “regrowth in time-kill curves” value [7]?
Answer: Its value is “regrowth phase”.
